From patent US6974568B2, “Treatment for cough” (The Regents of the University of California, priority 2000, dated 2005) come the findings set out here.

Series [1] relates to capsaicin-evoked bronchospasm. The experiment in a line: Capsaicin-evoked bronchospasm in anesthetized guinea pigs. The series is classed as in vivo, guinea pig. As to conditions: for effect on capsaicin-evoked bronchospasm: administered systemically before capsaicin; for reversal of anandamide's inhibition of capsaicin-evoked bronchospasm: antagonist given with anandamide, SR141716A 0.5 mg per kg i.v., SR144528 0.3 mg per kg i.v. (maximal dose); for intrinsic effect on capsaicin-evoked bronchoconstriction: capsaicin via tracheal catheter or i.v., antagonist i.v.

Series [2] has as its system capsaicin-evoked bronchospasm. The experiment in a line: Capsaicin-evoked bronchospasm in anesthetized rats. The note with it: n=3. The series is classed as in vivo, rat.
Series [3] deals with bronchial smooth muscle. The experiment in a line: Bronchoconstriction in vagotomized, atropine-treated rats. In kind it is in vivo, rat. As to conditions: after vagotomy and atropine, n=3.
The test system of series [4] is guinea pig lung parenchyma strips. The experiment in a line: Isolated lung strips, muscle contraction. The note with it: for effect on anandamide bronchoconstriction in vitro: SR141716A 1 μM, lung strips. As to the method:
Guinea pig parenchimal strips were prepared essentially as described in Samhoun, M. N., et al. (1984) Prostaglandins, 27, 711-724. The strips were placed in 10-ml organ baths containing Krebs' buffer (in mM: NaCl, 118; KCl, 4; K2HPO4, 1.2; MgSO4, 1.2; CaCl2, 2.5; NaHCO3, 25.0; glucose, 11.2; supplemented with […] atropine sulfate and […] indomethacin) at 37° C. and aerated with an oxygen/carbon dioxide mixture (95/5%). Muscle contractions were recorded with an isometric force transducer (U. Basile) and expressed in dyne per mg of fresh tissue.

In series [5] the test system is capsaicin-evoked cough. The note with it: guinea pig, in vivo.
Series [6] relates to bronchial smooth muscle. The experiment in a line: Direct bronchomotor action in anesthetized animals with intact vagus. In kind it is in vivo, guinea pig.
The subject of series [7] is bronchial smooth muscle. Put plainly: Bronchoconstriction in vagotomized, atropine-treated guinea pigs. In kind it is in vivo, guinea pig. As to conditions: for effect on anandamide bronchoconstriction in vivo: antagonist before anandamide; for bronchial muscle constriction, % of maximal bronchospasm: tracheal administration, n=6.
Where [8] appears, read: capsazepine 0.2 mg per kg, i.v.

In the case of `COc1cc(CNC(=O)CCCC/C=C/C(C)C)ccc1O` [capsaicin], the “bronchospasm, % of maximal bronchospasm” value in series [1] (capsaicin alone, i.v., n=3) amounted to 55.3±8.2%; in series [2] (capsaicin 30 mg per animal, intratracheal), 55±12%; in series [2] (capsaicin 100 mg per animal, intratracheal) it was 81±19%; in series [2] (capsaicin intratracheal alone (anandamide experiment)), 37.2±4.2%; in series [2] (capsaicin, intratracheal, mean±s.e.m.), 41±6%.

For `CCCCC/C=C\C/C=C\C/C=C\C/C=C\CCCC(=O)NCCO` [anandamide, arachidonylethanolamide], the figures for the “bronchoconstriction, % of maximal bronchospasm” value in series [3] (1 mg per kg i.v.), in series [3] (3 mg per kg i.v.) and in series [3] (5 mg per kg i.v.) were 0±0%, 12±1.7% and 18.3±1.2%, respectively. Further, the “contraction of isolated lung strips” value in series [4] (anandamide 50 μM alone, n=6) is 0.336±0.07 dyne/mg of tissue. Moreover, in series [5], the “visual signs of cannabinoid intoxication” value is given as “not accompanied by any visual signs of cannabinoid intoxication”. Moreover, in series [1], the “effect on capsaicin-evoked bronchospasm” value is given as “abrogated”. In series [2] (capsaicin intratracheal after anandamide 1 mg per kg i.v.), the “bronchospasm, % of maximal bronchospasm” value came out at 14±7%. Also, the “bronchoconstriction, % of maximal” value in series [6] (5 mg per kg (highest dose tested), mean±s.e.m., n=5) came out at 11.8±5.9%. In addition, the direct bronchomotor action result in series [6] (doses below the highest dose tested (5 mg per kg), species not given) is “no direct bronchomotor action”. For the same compound, in series [7] (systemic application, guinea pigs), the “bronchomotor effect after vagotomy and atropine” value is recorded as “dose-dependent bronchoconstriction”.

`Oc1cc2c(cc1O)CN(C(=S)NCCc1ccc(Cl)cc1)CCC2` [capsazepine]: the “effect on the capsaicin response (bronchospasm)” value in series [1] (setting [8]) is on record as “completely prevented”. For the same compound, the “effect on anandamide-evoked bronchospasm” value in series [7] (setting [8]) is on record as “had no effect”.

As to `CCCCCCCCCCCCCCCC(=O)NCCO` [Palmitylethanolamide], the “effect on capsaicin-evoked bronchospasm” value in series [1] is on record as “ineffective”.

Turning to `Cc1c(C(=O)NN2CCCCC2)nn(-c2ccc(Cl)cc2Cl)c1-c1ccc(Cl)cc1` [SR141716A], the “effect on anandamide bronchoconstriction in vitro” value in series [4] is “blocked”. Besides, in series [5] (iv), the “effect of CB1 receptor blockade on anandamide's reduction of capsaicin-evoked cough” value was “abrogated” and the “intrinsic effect on capsaicin-evoked coughing” value is reported as “significantly enhanced”. For the same compound, in series [1], the “reversal of anandamide's inhibition of capsaicin-evoked bronchospasm” value is recorded as “completely reversed” and the “intrinsic effect on capsaicin-evoked bronchoconstriction” value is reported as “significantly enhanced”. Also, in series [1] (capsaicin i.v. after SR141716A 0.5 mg per kg i.v., P<0.05, n=3), the “bronchospasm, % of maximal bronchospasm” value came out at 92.3±3.4%. In addition, the “bronchomotor consequences per se” value in series [6] (antagonist alone, without capsaicin, guinea pigs) is listed as “no bronchomotor consequences per se”. For the same compound, the “effect on anandamide bronchoconstriction in vivo” value in series [7] is recorded as “blocked”.

Take `CCCCCCC(C)(C)c1cc(O)c2c(c1)OC(C)(C)[C@@H]1CC=C(CO)C[C@@H]21` [HU210]: the “bronchial muscle constriction, % of maximal bronchospasm” value came out at 10.0±0.6% in series [7] (0.1 mg per animal), 30±1.2% in series [7] (1 mg per animal), 60±2.2% in series [7] (10 mg per animal) and 100% in series [7] (30 mg per animal).

With SR144528, in series [4], the “effect on anandamide bronchoconstriction in vitro” value is “had no such effect”. In series [5] (iv), the “intrinsic effect on capsaicin-evoked coughing” value is “had no such effects”. Besides, in series [1], the “reversal of anandamide's inhibition of capsaicin-evoked bronchospasm” value is on record as “only slightly reduced” and the “intrinsic effect on capsaicin-evoked bronchoconstriction” value is given as “had no such effects”. Moreover, in series [7], the “effect on anandamide bronchoconstriction in vivo” value was “had no such effect”.

`CCCCC/C=C\C/C=C\C/C=C\C/C=C\CCCC(=O)Nc1ccc(O)cc1` [N-(4-hydroxyphenyl)-arachidonamide]: in series [4] (anandamide 50 μM plus N-(4-hydroxyphenyl)-arachidonamide 28 μM, P<0.05, n=6), the “anandamide-evoked contraction of isolated lung strips” value is 0.638±0.06 dyne/mg of tissue.
